Source: patent US20160108098A1, “THERAPEUTIC PEPTIDES” (GLAXOSMITHKLINE INTELLECTUAL PROPERTY DEVELOPMENT LIMITED, priority 2013, published 2016)
Where no end group is shown, it is not given here.

Legend:
[1] = cumulative food intake, diet-induced obese mice (Model B), BioDaQ system; type: in vivo; settings: diet-induced obese C57BL/6 mice, 1 mg/kg subcutaneously, cumulative food intake after 6 h, relative to vehicle controls
Description: (§1) Cumulative food intake after 6 h was determined for the PYY analogs in either lean (Model A) or diet-induced obese (DIO) (Model B) C57BL/6 mice in a BioDaQ system for continuous monitoring of food intake (Research Diets Inc., New Brunswick, N.J.). […] Mice were placed singly into the BioDaQ cages and acclimatized for a minimum of 6 days and were allowed ad libitum access to food and water. Approximately 1 hour prior to lights-out, animals were dosed subcutaneously with either vehicle (20 mM Acetate buffer, pH 4.9 or 20% DMSO in water) or analogs dissolved in vehicle (1 mg/kg) (8 animals per group). Once all animals have been dosed, feeder gates were opened providing ad-libitum access to food. Continuous food intake was monitored and collected for 15 hours. […] P-values<0.05 were considered to indicate a significant difference between treatment groups.

[2] = biological target: T1, human Neuropeptide Y receptor type 2 (Homo sapiens, UniProt P49146); assay: melanophore assay, potency at the human Neuropeptide Y receptor type 2; type: cell-based; settings: read-out: hNPY Y2 pEC50 (converted)
T1 construct: expressed in transfected cells; host or cells: melanophores; own knowledge: in the cited Jayawickreme protocol these are Xenopus laevis melanophores transfected with the receptor
T1 sequence (P49146 1-381): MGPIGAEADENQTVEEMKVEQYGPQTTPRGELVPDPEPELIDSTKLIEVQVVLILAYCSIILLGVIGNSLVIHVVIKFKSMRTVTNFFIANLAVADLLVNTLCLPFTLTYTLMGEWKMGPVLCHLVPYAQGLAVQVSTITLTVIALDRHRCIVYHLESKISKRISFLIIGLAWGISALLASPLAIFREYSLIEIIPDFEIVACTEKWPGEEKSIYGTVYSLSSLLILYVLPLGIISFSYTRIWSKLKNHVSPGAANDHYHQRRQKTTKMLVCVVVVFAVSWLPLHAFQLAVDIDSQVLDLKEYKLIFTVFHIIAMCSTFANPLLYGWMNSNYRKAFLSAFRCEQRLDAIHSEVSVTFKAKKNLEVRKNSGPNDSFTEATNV

[3] = cumulative food intake, lean mice (Model A), BioDaQ system; type: in vivo; settings: lean C57BL/6 mice, 1 mg/kg subcutaneously, cumulative food intake after 6 h, relative to vehicle controls
Description: as §1

[4] = chronic (41 days) efficacy study in diet-induced obese (DIO) Long Evans rats: body weight, body composition, food intake; type: in vivo, Long Evans rat; settings: for weight loss vs. vehicle: 40 days, subcutaneous osmotic pumps, ED50 doses; for fat mass lost from vehicle control: QMR, day 40 of treatment; for inhibition of cumulative food intake: treatment period, vs. vehicle control
Description: Rats were 17 weeks old at the start of the study. The rats were housed 1 per cage and given ad libitum access to TD.95217 chow and water, maintained on a 12 h light/dark cycle from 5:00 AM to 5:00 PM at 21° C. and 50% relative humidity and allowed to acclimate for at least 7 days prior to baseline measurements. Baseline fat mass and non-fat mass measurements were taken 3 days before the start of peptide infusion and on day 40 of treatment using a QMR instrument (Echo Medical Systems, Houston, Tex.). […] Each rat was implanted with two osmotic pumps subcutaneously in the scapula region containing vehicle or peptide according to their treatment group. Body weight and food intake were measured twice per week beginning three days before the 41-day treatment period. On day 41 of treatment, whole blood was collected by cardiac stick under isoflurane anesthesia. Plasma and serum were then prepared from the whole blood for serum chemistry analysis. All the data are presented as mean±SEM. The data were analyzed in either Prism (GraphPad Software, Inc., La Jolla, Calif.) or Excel using a Student's T-test to compare each group to the appropriate control group. P-values<0.05 were considered to indicate a significant difference between treatment groups.

[5] = chronic (26 days) efficacy study in Zucker Diabetic Fatty (ZDF) rats: glucose, HbA1c; type: in vivo, Zucker Diabetic Fatty (ZDF) rat; settings: for ΔΔ % HbA1c / ΔΔGlucose: 26 days of treatment, change from baseline and vehicle control; for ΔΔGlucose: ED20 doses
Text: Male ZDF rats were 12 weeks old at the start of the study (Charles River, Inc. Boston, Mass.). […] Baseline fat mass and non-fat mass measurements were taken 3 days before the start of peptide infusion and on day 26 of treatment using a QMR instrument (Echo Medical Systems, Houston, Tex.). […] P-values<0.05 were considered to indicate a significant difference between treatment groups.

CC(C)C[C@H](NC(=O)[C@H](CO)NC(=O)[C@H](C)NC(=O)[C@H](Cc1ccc(O)cc1)NC(=O)[C@H](Cc1ccc(O)cc1)NC(=O)[C@H](CCCNC(=N)N)NC(=O)[C@H](CC(N)=O)NC(=O)[C@H](Cc1c[nH]c2ccccc12)NC(=O)[C@H](CCC(=O)O)NC(=O)[C@H](CCC(=O)O)NC(=O)[C@@H]1CCCN1C(=O)[C@H](CO)NC(=O)[C@H](C)NC(=O)[C@H](CC(=O)O)NC(=O)[C@H](CCCCN)NC(=O)CNC(=O)[C@@H]1CCCN1C(=O)[C@H](Cc1c[nH]cn1)NC(=O)[C@H](CCC(=O)O)NC(=O)[C@@H]1CCCN1C(=O)[C@H](CCCCN)NC(=O)[C@@H]1CCCN1)C(=O)N[C@@H](CCCNC(=N)N)C(=O)N[C@@H](CCCCN)C(=O)N[C@@H](Cc1ccc(O)cc1)C(=O)N[C@@H](CC(C)C)C(=O)N[C@@H](CC(N)=O)C(=O)N[C@@H](Cc1c[nH]c2ccccc12)C(=O)N[C@H](C(=O)N[C@H](C(=O)N[C@@H](CCCNC(=N)N)C(=O)N[C@@H](CCC(N)=O)C(=O)N[C@@H](CCCNC(=N)N)C(=O)N[C@@H](Cc1ccc(O)cc1)C(N)=O)[C@@H](C)O)C(C)C [Example 25]
% reduction in food intake, model B [1]: −68%
EC50 [2]: 0.251 nM

H-PKPEAPLSKQLEEEAVRYYASLRHYLNLVTRQRY-NH2 [Peptide 21]
EC50 [2]: 2 nM
% change in food intake vs vehicle, model A [3]: -2%

PKPEAPGCDASPEEWNRYYASLRKYLNWVTRQHY-NH2 [Peptide 14]
EC50 [2]: 6.31 nM
% change in food intake vs vehicle, model A [3]: 24%

PKPVAPGCDASPAELNRQYSDLRNYWNLVTRQRY-NH2 [Peptide 15]
EC50 [2]: 1.26 nM
% change in food intake vs vehicle, model A [3]: -17%

PYY(3-36)NH2
weight loss vs. vehicle [4]: −1.3%
fat mass lost from vehicle control [4]: −10.9 grams
inhibition of cumulative food intake [4]: −0.7%
ΔΔ % HbA1c [5]: 0.01 ± 0.4%
ΔΔGlucose [5]: −33.1 ± 17^ mg/dL

exendin-4
weight loss vs. vehicle [4]: −11.3%
fat mass lost from vehicle control [4]: −55.8 grams
ED50 for weight loss ([4]; dose used for infusion): 0.15 mg/kg/day
inhibition of cumulative food intake [4]: −20.1%
ΔΔ % HbA1c [5]: −0.4 ± 0.2%
ΔΔGlucose [5]: -53.9 mg/dL
ΔΔGlucose ([5]; listed as Exendin-4): -53.9 ± 18.3 mg/dL
ED20 for HbA1c lowering ([5]; dose used for infusion): 0.0055 mg/kg/day
